From PMC9743094, “Synthesis and Evaluation of Polymyxins Bearing Reductively Labile Disulfide-Linked Lipids” (Journal of Medicinal Chemistry, 2022)
Values after ≈ are worked out from the molar mass of the structure shown. Where two headings read alike, the source gives them in different places. Positions of bridges follow the written chain, without caps; N, C: chain ends. Non-standard residues stand in square brackets, D forms with d. Residues, ends and D or L forms follow the SMILES beside them. *: point of attachment. S(2-cyclohexylethyl) = C1CCC(CCS*)CC1; S(3-Methylbutyl) = CC(C)CCS*; Dab = NCC[C@H](N)C(=O)O

Key:
[1] = system: differentiated conditionally immortalized PTECs (ciPTECs, OAT-1); assay: ciPTEC toxicity assay (PrestoBlue); assay type: cell-based, human
Procedure: ciPTECs (OAT-1) cells,[52],[53] grown to 90–100% confluence, were washed by Hanks’ balanced salt solution (HBSS; Gibco, Life Technologies, Paisley, U.K.) and detached by accutase (4 mL) for 5 min at 37 °C. The cells were then suspended in fresh medium (DMEM/F-12, supplemented with 10% fetal calf serum, insulin (5 μg/mL), transferrin (5 μg/mL), selenium (5 μg/mL) hydrocortisone (35 ng/mL), Epidermal Growth Factor (10 ng/mL) and tri-iodothyronine (40 pg/mL)). Cell density was adjusted to 2.0 × 10^5 cells/mL, of which 100 μL was added to each well of a 96-well plate. The cells were incubated for 24 h at 33 °C, followed by 6 days at 37 °C, in a humidified atmosphere containing 5% (v/v) CO2. The medium was refreshed every second or third day.
Compounds were dissolved and serially diluted in serum-free medium. Differentiated cells were washed once with HBSS and serially diluted compounds (80 μL/well) were transferred to the ciPTEC-containing plate. Compounds were incubated for 24 h at 37 °C; the cells were washed by HBSS, followed by incubation with 10% PrestoBlue cell viability reagent (Thermo Scientific, Vienna, Austria) in HBSS at 37 °C in the dark. Fluorescence was recorded (excitation: 530 nm, emission: 590 nm). Raw data are corrected for PrestoBlue background fluorescence and reported relative to the no-treatment control (cells with medium only). Viability data were fitted with GraphPad Prism software (version 5.03; GraphPad Software, La Jolla, CA), by nonlinear regression with 0 as bottom constraint. Presented data are based on triplicates.
Toxicity assessment on PTECs
Table S1. TC50 values for polymyxin analogues. Toxicity assessment on proximal tubular epithelial cells
performed using PrestoBlue™ assay. TC50 values are derived after non-linear regression analysis on cell viability
correspond to data obtained from 2 different batches of cells/analyses on different days. As the value for
polymyxin B differs 2-fold, values in the manuscript are presented relative to the polymyxin B value.
Compound TC50 (µ M) Compound TC50 (µ M)
Polymyxin B 80 Polymyxin B 41
Figure S3. Representative traces of ciPTECs’ viability after incubation with analogues for 24 hours. Shown data are based on […]

A. baumannii BAA-747 = assay type: cell-based; conditions: BAA-747
Procedure: (§1) Minimum inhibitory concentrations (MICs) on relevant Gram-negative bacteria were determined by broth microdilution, in accordance with CLSI guidelines. Indicated bacteria were taken from glycerol stocks and incubated overnight on blood agar at 37 °C. Well-isolated colonies were taken, suspended in TSB (5 mL), and grown to an OD600 of 0.5. Compounds to be tested were dissolved in DMSO (6.4 mg/mL), diluted in cation-adjusted Mueller–Hinton Broth (CAMHB) (12.5 and 20 μg/mL Mg^2+ and Ca^2+, respectively), and diluted serially on polypropylene microtiter plates. To the diluted compounds (50 μL per well) was added 50 μL of relevant bacterial suspension, to yield a final concentration of 10^6 CFU/mL. Plates were covered by adhesive gas-permeable membranes and incubated at 37 °C. MIC was read out as the lowest concentration that inhibited visual bacterial growth. Shown values are consistent results from at least duplicate experiments.
(§2) Bacterial strains used for MIC assays and extended MIC assessment
(§3) Strains: The following strains were obtained from BEI Resources, NIAID, NIH: E. Coli M0072, strain
(§4) Table S2. […] Values are given in μg/mL.
(§5) Species Strain ID Resistance Polymyxin B 18b 23a 24a

A. baumannii RUH-134 = assay type: cell-based; conditions: RUH-134
Procedure: as §1, §2, §3, §4, §5

E. coli 1793 = assay type: cell-based; conditions: 1793
Procedure: as §1, §2, §3, §4, §5

E. coli JS136 = assay type: cell-based; conditions: JS136
Procedure: as §1, §2, §3, §4, §5

E. coli M0072 = assay type: cell-based; conditions: M0072
Procedure: as §1, §2, §3, §4, §5

K. pneumoniae ATCC 29665 = assay type: cell-based; conditions: ATCC 29665
Procedure: as §1, §2, §3, §4, §5

K. pneumoniae KP1.53 = assay type: cell-based; conditions: KP1.53
Procedure: as §1, §2, §3, §4, §5

K. pneumoniae RC0045 = assay type: cell-based; conditions: RC0045
Procedure: as §1, §2, §3, §4, §5

P. aeruginosa 2018-007 = assay type: cell-based; conditions: 2018-007
Procedure: as §1, §2, §3, §4, §5

P. aeruginosa 2251 = assay type: cell-based; conditions: 2251
Procedure: as §1, §2, §3, §4, §5

P. aeruginosa ATCC 10145 = assay type: cell-based; conditions: ATCC 10145
Procedure: as §1, §2, §3, §4, §5

P. aeruginosa M120 = assay type: cell-based; conditions: M120
Procedure: as §1, §2, §3, §4, §5

A. baumanii (ATCC 17961) = assay type: cell-based; conditions: ATCC 17961, 2 h
Procedure: as §1
(§6) Table S3. MIC values [µg/mL] and relative toxicity values for disulfide containing polymyxin derivative 18b and
(§7) non-disulfide containing analogue 45. […]

P. aeruginosa (PAO1) = assay type: cell-based; conditions: PAO1, 2 h
Procedure: as §1, §6, §7

[2] = system: A. baumannii (ATCC 19606); assay type: cell-based; conditions: ATCC 19606
Procedure: as §1

E. coli (ATCC 25922) = assay type: cell-based; conditions: ATCC 25922
Procedure: as §1

[3] = system: K. pneumoniae (ATCC 13883); assay type: cell-based; conditions: ATCC 13883
Procedure: as §1

[4] = system: P. aeruginosa (ATCC 27853); assay type: cell-based; conditions: ATCC 27853
Procedure: as §1

A. baumannii NRZ-00687 = assay type: cell-based; conditions: NRZ-00687
Procedure: as §1, §2, §3, §4, §5

Row | SMILES | ciPTEC Toxicity Index (relative to polymyxin B) [1] | MIC A. baumannii BAA-747 (A. baumannii BAA-747) [µg/mL] | MIC A. baumannii RUH-134 (A. baumannii RUH-134) [µg/mL] | MIC E. coli 1793 (E. coli 1793) [µg/mL] | MIC E. coli JS136 (E. coli JS136) [µg/mL] | MIC E. coli M0072 (E. coli M0072) [µg/mL] | MIC K. pneumoniae ATCC 29665 (K. pneumoniae ATCC 29665) [µg/mL] | MIC K. pneumoniae KP1.53 (K. pneumoniae KP1.53) [µg/mL] | MIC K. pneumoniae RC0045 (K. pneumoniae RC0045) [µg/mL] | MIC P. aeruginosa 2018-007 (P. aeruginosa 2018-007) [µg/mL] | MIC P. aeruginosa 2251 (P. aeruginosa 2251) [µg/mL] | MIC P. aeruginosa ATCC 10145 (P. aeruginosa ATCC 10145) [µg/mL] | MIC P. aeruginosa M120 (P. aeruginosa M120) [µg/mL] | other results
1 | CC(C)CCSSC[C@@H](N)C(=O)N[C@H](C(=O)N[C@@H](CCN)C(=O)N[C@H]1CCNC(=O)[C@H]([C@@H](C)O)NC(=O)[C@H](CCN)NC(=O)[C@H](CCN)NC(=O)[C@H](CC(C)C)NC(=O)[C@@H](Cc2ccccc2)NC(=O)[C@H](CCN)NC1=O)[C@@H](C)O [Compound 18b] (H-[dC](S(3-Methylbutyl))T[Dab][Dab][Dab][dF]L[Dab][Dab]T; lactam 4-C) | 4.7 | 0.5 (≈ 0.428 µM) | 1 (≈ 0.856 µM) | 0.25 (≈ 0.214 µM) | 0.5 (≈ 0.428 µM) | 0.5 (≈ 0.428 µM) | 0.5 (≈ 0.428 µM) | 1 (≈ 0.856 µM) | 0.5 (≈ 0.428 µM) | 2 (≈ 1.71 µM) | 2 (≈ 1.71 µM) | 2 (≈ 1.71 µM) | 2 (≈ 1.71 µM) | TC50, Day 1 [1]: 345 µM; TC50, Day 2 ([1]; 24 h): 192 µM; MIC A. baumanii (ATCC 17961) (A. baumanii (ATCC 17961)): 0.25 µg/mL (≈ 0.214 µM); MIC P. aeruginosa (PAO1) (P. aeruginosa (PAO1)): 1 µg/mL (≈ 0.856 µM)
2 | CC(C)C[C@@H]1NC(=O)[C@@H](Cc2ccccc2)NC(=O)[C@H](CCN)NC(=O)[C@@H](NC(=O)[C@H](CCN)NC(=O)[C@@H](NC(=O)[C@H](CSSCCC2CCCCC2)NC(=O)CN)[C@@H](C)O)CCNC(=O)[C@H]([C@@H](C)O)NC(=O)[C@H](CCN)NC(=O)[C@H](CCN)NC1=O [Compound 23a] (H-GC(S(2-cyclohexylethyl))T[Dab][Dab][Dab][dF]L[Dab][Dab]T; lactam 5-C) | 9.5 | 1 (≈ 0.79 µM) | 1 (≈ 0.79 µM) | 0.5 (≈ 0.395 µM) | 0.5 (≈ 0.395 µM) | 0.5 (≈ 0.395 µM) | 1 (≈ 0.79 µM) | 2 (≈ 1.58 µM) | 1 (≈ 0.79 µM) | 8 (≈ 6.32 µM) | 2 (≈ 1.58 µM) | 2 (≈ 1.58 µM) | 2 (≈ 1.58 µM) | MIC A. baumannii (ATCC 19606) [2]: 1 µg/mL (≈ 0.79 µM); MIC E. coli (ATCC 25922) (E. coli (ATCC 25922)): 1 µg/mL (≈ 0.79 µM); MIC K. pneumoniae (ATCC 13883) [3]: 1 µg/mL (≈ 0.79 µM); MIC P. aeruginosa (ATCC 27853) [4]: 1 µg/mL (≈ 0.79 µM); TC50, Day 2 [1]: 391 µM; MIC A. baumannii NRZ-00687 (A. baumannii NRZ-00687): 0.5 µg/mL (≈ 0.395 µM)
